Measured values as given in patent US11053253B2, “Macrocyclic compounds for treatment of medical disorders” (Achillion Pharmaceuticals, Inc., priority 2017, dated 2021).

Molecular target: Human Factor D (Homo sapiens (Human), UniProt P00746)
Assay: Human Factor D Assay
Assay type: biochemical
Conditions: Human Factor D 80 nM, substrate Z-L-Lys-SBzl, DTNB, A405; read-out: IC50 (Stars)
Experimental: Example 2. Human Factor D Assay
Human Factor D (purified from human serum, Complement Technology, Inc.) at 80 nM final concentration is incubated with test compound at various concentrations for 5 min at room temperature in 50 mM Tris, 1M NaCl, pH 7.5. A synthetic substrate Z-L-Lys-SBzl and DTNB (Ellman's reagent) are added to final concentrations of 100 µM each. Absorbance at 405 nm (A405) is recorded at 30 second intervals for 30 minutes using a microplate spectrophotometer. IC50 values are calculated by nonlinear regression of Complement Factor D reaction rates as a function of test compound concentration.

Sequence of Human Factor D (P00746 26-253): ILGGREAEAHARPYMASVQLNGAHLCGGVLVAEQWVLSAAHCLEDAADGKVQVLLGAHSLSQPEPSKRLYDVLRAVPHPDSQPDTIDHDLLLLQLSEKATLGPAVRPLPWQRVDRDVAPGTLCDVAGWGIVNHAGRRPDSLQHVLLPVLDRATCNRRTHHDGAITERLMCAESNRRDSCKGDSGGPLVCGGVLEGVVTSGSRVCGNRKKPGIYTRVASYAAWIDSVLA

| Compound | IC50 [µM] |
| --- | --- |
| CC(=O)c1nn(CC(=O)N2C3CC34CNC(=O)CCC=CCOCc3ccc(Br)nc3NC(=O)[C@@H]2C4)c2ccc(-c3cnc(C)nc3)cc12 (stereo partly drawn) [Compound T-2, (43S)-44-(2-(3-acetyl-5-(2-methylpyrimidin-5-yl)-1H-indazol-1-yl)acetyl)-16-bromo-13-oxa-44,2,6-triaza-1(2,3)-pyridina-4(3,1)-bicyclo[3.1.0]hexanacyclotetradecaphan-10-ene-3,7-dione] | < 1 |
| CC(=O)c1nn2c3c(cc(-c4cnc(C)nc4)cc13)CCCCCCC(=O)NC[C@@]13C[C@@H](C(=O)NCC(F)=C(C)C)N(C(=O)C2)[C@@H]1C3 [Compound T-198] | < 1 |
| CC(=O)N[C@H]1CC=CCOCc2ccc(Br)nc2NC(=O)[C@@H]2C[C@]3(C[C@H]3N2C(=O)Cn2nc(C(C)=O)c3cc(-c4cnc(C)nc4)ccc32)CN(C)C1=O [Compound T-103] | < 1 |
| CC(=O)c1nn2c3c(cc(-c4cnc(C)nc4)cc13)CCCCCC(C)(C)C(=O)N(C)C[C@@]13C[C@@H](C(=O)Nc4ccn(CC(F)(F)F)n4)N(C(=O)C2)[C@@H]1C3 [Compound T-191] | < 1 |
| CC(=O)c1nn(CC(=O)N2[C@H]3C[C@]4(C[C@@H]24)CN(C)CCCC=CCc2ccc(Br)nc2NC3=O)c2cnc(-c3cnc(C)nc3)cc12 [Compound T-57] | < 1 |
| CC(=O)c1nn(CC(=O)N2C[C@@]3(F)CNC(=O)CCCCCOCc4ccc(Br)nc4NC(=O)[C@@H]2C3)c2cnc(-c3cnc(C)nc3)cc12 [Compound T-169] | < 1 |
| CC(=O)c1nn(CC(=O)N2[C@H]3C[C@@]4(CCCCCCCOCc5ccc(Br)nc5NC3=O)C[C@@H]24)c2cnc(-c3cnc(C)nc3)cc12 [Compound T-88] | < 1 |
| CCCCNC(=O)[C@@H]1C[C@]23CNC(=O)CCCCCCc4cc(-c5cnc(C)nc5)cc5c(C(C)=O)nn(c45)CC(=O)N1[C@@H]2C3 [Compound T-199] | < 1 |
| CC(=O)c1nn(CC(=O)N2[C@H]3C[C@@]4(COC/C=C\COCc5ccc(Br)nc5NC3=O)C[C@@H]24)c2cnc(-c3cnc(C)nc3)cc12 [Compound T-45] | < 1 |
| CC(=O)c1nn2c3c(nc(-c4cnc(C)nc4)cc13)CCCCCCC(=O)NC[C@@]13C[C@@H](C(=O)Nc4nc(C(F)(F)F)ccc4C)N(C(=O)C2)[C@@H]1C3 [Compound T-132] | < 1 |
| CC(=O)c1nn(CC(=O)N2[C@H]3C[C@]4(C[C@@H]24)Cn2ccc(n2)C=CCCC(F)(F)c2ccc(Br)nc2NC3=O)c2cnc(-c3cnc(C)nc3)cc12 [Compound T-105] | < 1 |
| CC(=O)c1nn(CC(=O)N2[C@H]3C[C@]4(C[C@@H]24)CN(C)CCCCCCc2ccc(Br)nc2NC3=O)c2c(C)cc(-c3cnc(C)nc3)cc12 [Compound T-72] | < 1 |
| CC(=O)c1nn(CC(=O)N2[C@H]3C[C@@]4(COCC=CCOCc5ccc(Br)nc5NC3=O)C[C@@H]24)c2c(C)nc(-c3cnc(C)nc3)cc12 [Compound T-193] | < 1 |
| CC(=O)c1nn(CC(=O)N2[C@H]3C[C@@]4(CNC(=O)C(C)(C)CCCCOCc5ccc(Br)nc5NC3=O)C[C@@H]24)c2cnc(-c3cnc(C)nc3)cc12 [Compound T-118] | < 1 |
| CC(=O)c1nn2c3c(cc(-c4cnc(C)nc4)cc13)CCCCCCC(=O)N(C)C[C@@]13C[C@@H](C(=O)Nc4nc(C(F)(F)F)ccc4C)N(C(=O)C2)[C@@H]1C3 [Compound T-93] | < 1 |
| CC(=O)c1nn(CC(=O)N2[C@H]3C[C@]4(C[C@@H]24)CN(C)CCCCOCc2ccc(Br)nc2NC3=O)c2ccc(-c3cnc(C)nc3)cc12 [Compound T-7, (41R,43S,45R)-42-(2-(3-acetyl-5-(2-methylpyrimidin-5-yl)-1H-indazol-1-yl)acetyl)-16-bromo-6-methyl-11-oxa-42,2,6-triaza-1(2,3)-pyridina-4(3,5)-bicyclo[3.1.0]hexanacyclododecaphan-3-one] | < 1 |

| Compound | IC50 [µM] |
| --- | --- |
| CC(=O)c1nn2c3c(cc(-c4cnc(C)nc4)cc13)CCCCCCC(=O)NC[C@@]13C[C@@H](C(=O)NCc4cccc(Cl)c4)N(C(=O)C2)[C@@H]1C3 [Compound T-95] | < 1 |
| CC(=O)c1nn2c3c(cc(-c4cnc(C)nc4)cc13)CC=CCCCC(=O)NC[C@@]13C[C@@H](C(=O)Nc4cc(C)c(F)c(Br)n4)N(C(=O)C2)[C@@H]1C3 [Compound T-217] | < 1 |
| CC(=O)c1nn2c3c(cc(-c4cnc(C)nc4)cc13)CCCCCCC(=O)NC[C@@]13C[C@@H](C(=O)Nc4nc(C#N)ccc4C)N(C(=O)C2)[C@@H]1C3 [Compound T-221] | < 1 |
| CC(=O)c1nn2c3cc(c(-c4cnc(C)nc4)cc13)OCCCCCCCCCC[C@@]13C[C@@H](C(=O)Nc4nc(Br)ccc4C)N(C(=O)C2)[C@@H]1C3 [Compound T-99] | < 1 |
| CC(=O)c1nn2c3c(cc(-c4cnc(C)nc4)cc13)CCCCCCC(=O)NC[C@@]13C[C@@H](C(=O)NCCC(C)(C)C)N(C(=O)C2)[C@@H]1C3 [Compound T-177] | < 1 |
| CC(=O)c1nn(CC(=O)N2[C@H]3C[C@@]4(CNC(=O)C(C)(C)C=CCOCc5ccc(C(F)(F)F)nc5NC3=O)C[C@@H]24)c2ccc(-c3cnc(C)nc3)cc12 [Compound T-235] | < 1 |
| CC(=O)c1nn(CC(=O)N2C3CC34COCC=CCOCc3ccc(Br)nc3NC(=O)[C@@H]2C4)c2ccc(-c3cnc(C)nc3)cc12 (stereo partly drawn) [Compound T-1, (43S)-44-(2-(3-acetyl-5-(2-methylpyrimidin-5-yl)-1H-indazol-1-yl)acetyl)-16-bromo-6,11-dioxa-44,2-diaza-1(2,3)-pyridina-4(3,1)-bicyclo[3.1.0]hexanacyclododecaphan-8-en-3-one] | < 1 |
| Cc1ncc(-c2cc3c4c(c2)c(C(N)=O)nn4CC(=O)N2[C@H](C(=O)Nc4nc(Br)ccc4C)C[C@@]4(CNC(=O)CCCCCC3)C[C@@H]24)cn1 [Compound T-153] | < 1 |
| CC(=O)c1nn2c3c(cc(-c4cnc5ccnn5c4)cc13)CCCCCCC(=O)NC[C@@]13C[C@@H](C(=O)Nc4nc(C(F)(F)F)ccc4C)N(C(=O)C2)[C@@H]1C3 [Compound T-255] | < 1 |
| CC(=O)c1nn2c3c(cc(-c4cnc(C)nc4)cc13)CCCCC=CCc1cccc(n1)OC[C@@]13C[C@@H](C(=O)Nc4nc(Br)ccc4C)N(C(=O)C2)[C@@H]1C3 [Compound T-137] | < 1 |
| CC(=O)c1nn2c3c(cc(-c4cnc(C)nc4)cc13)CC=CCCCC(=O)NC[C@@]13C[C@@H](C(=O)Nc4nc(Br)c(F)cc4C)N(C(=O)C2)[C@@H]1C3 [Compound T-84] | < 1 |
| CC(=O)c1nn(CC(=O)N2[C@H]3C[C@@]4(COCC=CCOCc5cccnc5NC3=O)C[C@@H]24)c2ccc(-c3cnc(C)nc3)cc12 [Compound T-5, (41R,43S,45S)-42-(2-(3-acetyl-5-(2-methylpyrimidin-5-yl)-1H-indazol-1-yl)acetyl)-6,11-dioxa-42,2-diaza-1(2,3)-pyridina-4(3,5)-bicyclo[3.1.0]hexanacyclododecaphan-8-en-3-one] | < 1 |
| CC(=O)c1nn2c3c(cc(-c4cnc(C)nc4)cc13)CCCCCCC(=O)NC[C@@]13C[C@@H](C(=O)Nc4ccc(F)c(Br)n4)N(C(=O)C2)[C@@H]1C3 [Compound T-213] | < 1 |
| CC(=O)c1nn(CC(=O)N2C[C@@]3(F)COCCCCCCc4ccc(Br)nc4NC(=O)[C@@H]2C3)c2ccc(-c3cnc(C)nc3)cc12 [Compound T-195] | < 1 |
| CC(=O)c1nn(CC(=O)N2[C@H]3C[C@@]4(CCCCCCCN(C)Cc5ccc(Br)nc5NC3=O)C[C@@H]24)c2cnc(-c3cnc(C)nc3)cc12 [Compound T-98] | < 1 |
